Test results as given in patent US7264925B2, “Method for analysis of oligonucleotide analogs” (AVI BioPharma, Inc., priority 2000, dated 2007).
Values joined by “and” are separate entries in the source; they are usually repeats but may differ in a detail not shown here. Identical values can stand only once.

Assay: Quantitation of PMO in plasma of cynomolgus monkeys following i.v. injection (anion exchange HPLC of the duplex with 5'-fluorescein labeled DNA)
Format: in vivo
Method: • HPLC conditions: • Column: Dionex DNA Pac™ PA-100 (250×4 mm, 15μ particle size) • Mobile Phases: A: 0.025 M Tris (pH 9); B: 0.025 M Tris (pH 9)/1 M NaCl • Gradient: A:B:C 90/10 @ 0 min to 55/45 @ 20 min • Flow Rate: 1.5 mL/min • Wavelength: 494 nm excitation; 518 detection • Temperature: 25° C.
Cynomolgus monkeys were injected i.v. with the analyte PMO, and blood samples were taken at various time intervals, as shown in Table 2. In a typical analysis, 200 μL of plasma was combined with a known amount (e.g. 500 ng) of internal standard (FIG. 11) in 10 μL of 0.025 M Tris buffer, pH 8-9. Methanol (200.0 μL) was added, and the sample was mixed using a vortex mixer. The precipitate was removed with the aid of high speed centrifugation. The supernatant was removed and the pellet washed with 100 μL Tris buffer; the wash was added to the supernatant. The mixture was heated at 70° C. for a period of 10 minutes, and the sample was once again subjected to high speed centrifugation. The supernatant was transferred and lyophilized to dryness. The dry material was reconstituted with a 100.0 μL aliquot of DNA (5′-fluorescein labeled) in 0.025 M Tris (pH 8-9) and transferred to an autosampler vial, and the entire sample was injected onto the HPLC column and analyzed.
A calibration was performed by analysis of plasma standards containing from 250 to 20,000 ng of AVI-4126. The data were plotted as the ratio of analyte to internal standard signal intensities versus the ratio of analyte to internal standard concentrations.
The level detected in this assay was 10.0 ng analyte, which corresponded to 50 ng/mL. The sensitivity of this method thus far exceeds the detection and quantitation limits of UV based methods.

PMO: PMO (phosphorodiamidate morpholino oligomer) having the sequence ACGTTGAGGGGCATCGTCGC (SEQ ID NO: 1), antisense to human c-myc (antisense ACGTTGAGGGGCATCGTCGC; all phosphorodiamidate morpholino (PMO))
level detected in representative assay (FIG. 12), amount of analyte (200 μL plasma sample, representative assay, time point not stated): 10.0 ng
level detected in representative assay (FIG. 12), plasma concentration (corresponds to 10.0 ng analyte in plasma sample, time point not stated): 50 ng/mL
Quantitation of PMO in plasma, 10 min (cynomolgus monkey plasma, i.v. injection, 10 min, one value per monkey ID): 92.505 µg/mL and 105.37 µg/mL and 105.685 µg/mL
Quantitation of PMO in plasma, 2 h (cynomolgus monkey plasma, i.v. injection, 2 h, one value per monkey ID): 49.895 µg/mL and 68.025 µg/mL and 49.755 µg/mL
Quantitation of PMO in plasma, 6 hr (cynomolgus monkey plasma, i.v. injection, 6 hr, one value per monkey ID): 29.81 µg/mL and 45.33 µg/mL and 32.015 µg/mL
Quantitation of PMO in plasma, 24 hr (cynomolgus monkey plasma, i.v. injection, 24 hr, one value per monkey ID): 17.575 µg/mL and 14.895 µg/mL and 12.645 µg/mL
